# Source: PMC10099813, “Stafiba: A STAT5‐Selective Small‐Molecule Inhibitor” (Chembiochem, 2022)
# Tests used:
# [1] = molecular target: T1, STAT6 (Homo sapiens, UniProt P42226); experiment: Competitive fluorescence polarization (FP) binding assay, STAT6
# T1 sequence (P42226 1-847): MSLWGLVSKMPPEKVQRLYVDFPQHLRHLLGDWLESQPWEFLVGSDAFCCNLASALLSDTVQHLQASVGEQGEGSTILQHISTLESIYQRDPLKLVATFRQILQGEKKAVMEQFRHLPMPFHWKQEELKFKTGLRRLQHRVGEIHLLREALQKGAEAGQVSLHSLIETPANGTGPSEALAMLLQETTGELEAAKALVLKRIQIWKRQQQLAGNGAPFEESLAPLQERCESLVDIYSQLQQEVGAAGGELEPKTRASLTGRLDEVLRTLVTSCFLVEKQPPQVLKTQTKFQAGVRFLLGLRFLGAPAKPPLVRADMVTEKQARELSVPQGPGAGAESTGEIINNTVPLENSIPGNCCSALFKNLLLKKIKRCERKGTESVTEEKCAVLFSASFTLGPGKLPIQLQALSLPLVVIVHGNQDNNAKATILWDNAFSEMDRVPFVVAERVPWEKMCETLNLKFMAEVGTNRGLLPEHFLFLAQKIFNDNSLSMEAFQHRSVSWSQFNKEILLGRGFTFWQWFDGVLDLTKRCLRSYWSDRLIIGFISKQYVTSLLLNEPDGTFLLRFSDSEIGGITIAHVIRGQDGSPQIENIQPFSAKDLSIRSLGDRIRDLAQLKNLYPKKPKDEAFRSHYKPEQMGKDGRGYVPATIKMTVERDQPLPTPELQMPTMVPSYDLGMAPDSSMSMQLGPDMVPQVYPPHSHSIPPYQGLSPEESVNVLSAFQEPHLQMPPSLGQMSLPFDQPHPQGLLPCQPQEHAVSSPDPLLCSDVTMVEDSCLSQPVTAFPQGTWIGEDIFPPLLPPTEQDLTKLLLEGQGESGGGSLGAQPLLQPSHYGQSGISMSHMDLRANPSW
# Description: (§1) Fluorescence polarization assays: Competitive binding assays based on fluorescence polarization were carried out essentially as previously described.[[4a]] Unless stated otherwise, final concentrations of the buffer components were: 10 mM Tris (pH 8.0), 50 mM NaCl, 1 mM EDTA, 1 mM DTT, 0.1 % (v/v) Nonidet P‐40 substitute, and 2 % DMSO. Proteins were used at concentrations which reflect the Kd values of the interactions between the fluoropeptide and the protein preparations. Protein concentrations used for activity analysis of compound 5 were 91 nM for STAT1, 107 nM for STAT3, 28 nM for STAT4, 122 nM for STAT5a, 56 nM for STAT5b and 101 nM for STAT6. Protein concentrations used for activity analysis of AC‐4‐130 were 103 nM for STAT5a and 62 nM for STAT5b. […] Final concentration of all fluorescent‐labelled peptides was 10 nM. The following peptides were used in assays: 5‐carboxyfluorescein‐GpYDKPHVL for STAT1; 5‐carboxyfluorescein‐GpYLPQTV‐NH2 for STAT3; 5‐carboxyfluorescein‐GpYLPQNID for STAT4; 5‐carboxyfluorescein‐GpYLVLDKW for STAT5a/5b, and 5‐carboxyfluorescein‐GpYVPWQDLI for STAT6. Protein and test compounds were incubated for 1 h prior to addition of the fluorescein‐labeled peptide. Fluorescence polarization was measured after another 60 min using an Infinite F500 plate reader (Tecan). IC50 values were converted to Ki‐values using the published equation.[13]
# [2] = molecular target: T2, STAT5a (Homo sapiens, UniProt P42229); experiment: Competitive fluorescence polarization (FP) binding assay, STAT5a SH2 domain; conditions: for Ki / IC50: FP assay, 2 % DMSO (10 % DMSO for 10); for Ki: Ki calculated from IC50 (n=3) via published equation; for IC50: n=3 unless stated
# T2 sequence (P42229 1-794): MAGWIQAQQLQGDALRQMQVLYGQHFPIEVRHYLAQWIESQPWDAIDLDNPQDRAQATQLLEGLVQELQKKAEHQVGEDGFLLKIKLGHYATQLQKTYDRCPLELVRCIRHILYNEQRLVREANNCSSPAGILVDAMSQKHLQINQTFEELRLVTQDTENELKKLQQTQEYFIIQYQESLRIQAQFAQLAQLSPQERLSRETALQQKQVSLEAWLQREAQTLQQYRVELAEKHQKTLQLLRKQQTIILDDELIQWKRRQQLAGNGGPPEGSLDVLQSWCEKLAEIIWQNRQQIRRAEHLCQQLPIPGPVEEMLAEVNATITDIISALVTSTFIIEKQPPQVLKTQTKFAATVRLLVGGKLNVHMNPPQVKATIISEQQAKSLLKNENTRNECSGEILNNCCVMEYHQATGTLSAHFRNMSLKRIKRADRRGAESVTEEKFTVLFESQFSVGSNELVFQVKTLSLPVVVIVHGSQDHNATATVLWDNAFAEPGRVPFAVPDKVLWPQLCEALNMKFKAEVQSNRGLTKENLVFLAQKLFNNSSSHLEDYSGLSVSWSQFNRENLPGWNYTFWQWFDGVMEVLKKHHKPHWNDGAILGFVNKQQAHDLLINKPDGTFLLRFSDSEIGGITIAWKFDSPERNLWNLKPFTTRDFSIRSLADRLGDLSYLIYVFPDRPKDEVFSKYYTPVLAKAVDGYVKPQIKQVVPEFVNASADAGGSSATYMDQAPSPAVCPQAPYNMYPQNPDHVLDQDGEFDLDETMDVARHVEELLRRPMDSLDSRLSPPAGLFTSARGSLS
# Description: as §1
IC50 ([1]; 10 % DMSO),"Ki ([1]; Ki calculated from IC50, 10 % DMSO)",activity compared with AC-4-130 in FP assay against the SH2 domain of STAT5a ([2]; Figure 5C),Compound,"inhibition at 100 µM ([1]; 100 µM, 2 % DMSO)",Ki [2],IC50 [2]
,,,O=C(CNc1ccc(C(=O)Nc2ccc(Oc3ccccc3)cc2)cc1)NCc1cc(OP(=O)(O)O)cc(OP(=O)(O)O)c1 [compound 5],48 ± 1%,3.1 ± 0.1 µM,6.4 ± 0.2 µM
61.3 ± 2.7 µM,30.1 ± 1.3 µM,substantially more active than AC‐4‐130,O=C(CNc1ccc(C(=O)Nc2ccc(Oc3ccccc3)cc2)cc1)NCc1cc(C(F)(F)P(=O)(O)O)c(F)c(C(F)(F)P(=O)(O)O)c1 [compound 10],,3 ± 0.4 µM,6.2 ± 0.7 µM
